# Experiments:
# [1] = test system: deadnettle; assay: Test D postemergence; format: in vivo, Lamium amplexicaule; conditions: Lamium amplexicaule, post-emergence, scale 0 to 100 (0 no effect, 100 complete control), read-out: Plant response rating, Deadnettle
# Text: (§1) Seeds of plant species selected from bluegrass (annual bluegrass, Poa annua), blackgrass (Alopecurus myosuroides), canarygrass (littleseed canarygrass, Phalaris minor), chickweed (common chickweed, Stellaria media), galium (catchweed bedstraw, Galium aparine), bromegrass, downy (downy bromegrass, Bromus tectorum), field poppy (Papaver rhoeas), field violet (Viola arvensis), green foxtail (Setaria viridis), deadnettle (henbit deadnettle, Lamium amplexicaule), Italian ryegrass (Lolium multiflorum), kochia (Kochia scoparia), lambsquarters (Chenopodium album), oilseed rape (Brassica napus), pigweed (Amaranthus retroflexus), chamomile (scentless chamomile, Matricaria inodora), Russian thistle (Salsola kali), speedwell (bird's-eye speedwell, Veronica persica), spring barley (Hordeum vulgare), spring wheat (Triticum aestivum), wild buckwheat (Polygonum convolvulus), wild mustard (Sinapis arvensis), wild oat (Avena fatua), wild radish (Raphanus raphanistrum), windgrass (Apera spica-venti), winter barley (Hordeum vulgare), and winter wheat (Triticum aestivum) were planted into a silt loam soil and treated preemergence with test chemicals formulated in a non-phytotoxic solvent mixture which included a surfactant.
# (§2) At the same time, these species were planted in pots containing Redi-Earth® planting medium (Scotts Company, 14111 Scottslawn Road, Marysville, Ohio 43041) comprising spaghnum peat moss, vermiculite, wetting agent and starter nutrients and treated with postemergence applications of the test chemicals formulated in the same manner. Plants ranged in height from 2 to 18 cm (1- to 4-leaf stage). Treated plants and controls were maintained in a controlled growth environment for 7 to 21 days after which time all species were compared to controls and visually evaluated. Plant response ratings, summarized in Table D, are based on a scale of 0 to 100 where 0 is no effect and 100 is complete control. A dash (-) response means no test result.
# [2] = test system: kochia; assay: Test E postemergence; format: in vivo, Kochia scoparia
# Text: (§3) Seeds of plant species selected from corn (Zea mays), soybean (Glycine max), velvetleaf (Abutilon theophrasti), lambsquarters (Chenopodium album), wild poinsettia (Euphorbia heterophylla), palmer pigweed (Amaranthus palmeri), waterhemp (common waterhemp, Amaranthus rudis), surinam grass (Brachiaria decumbens), large (Lg) crabgrass (Digitaria sanguinalis), Brazilian crabgrass (Digitaria horizontalis), fall panicum (Panicum dichotomiflorum), giant foxtail (Setaria faberii), green foxtail (Setaria viridis), goosegrass (Eleusine indica), johnsongrass (Sorghum halepense), ragweed (common ragweed, Ambrosia elatior), barnyardgrass (Echinochloa crus-galli), sandbur (southern sandbur, Cenchrus echinatus), arrowleaf sida (Sida rhombifolia), Italian ryegrass (Lolium multiflorum), dayflower (Virginia (VA) dayflower, Commelina virginica), field bindweed (Convolvulus arvensis), morningglory (Ipomoea coccinea), nightshade (eastern black nightshade, Solanum ptycanthum), kochia (Kochia scoparia), yellow nutsedge (Cyperus esculentus), cocklebur (common cocklebur, Xanthium strumarium), smartweed (ladysthumb smartweed, and hairy beggarticks (Bidens pilosa), were planted into a silt loam soil and treated preemergence with test chemicals formulated in a non-phytotoxic solvent mixture which included a surfactant.
# (§4) At the same time, plants from these crop and weed species and also horseweed (Canada horseweed, Conyza canadensis), waterhemp_RES1, (ALS & Triazine resistant common waterhemp, Amaranthus rudis), and waterhemp_RES2, (ALS & HPPD resistant common waterhemp, Amaranthus rudis) were planted in pots containing Redi-Earth® planting medium (Scotts Company, 14111 Scottslawn Road, Marysville, Ohio 43041) comprising spaghnum peat moss, vermiculite, wetting agent and starter nutrients were treated with postemergence applications of test chemicals formulated in the same manner. Plants ranged in height from 2 to 18 cm for postemergence treatments (1- to 4-leaf stage). Treated plants and controls were maintained in a greenhouse for 14 to 21 days, after which time all species were compared to controls and visually evaluated. Plant response ratings, summarized in Table E, are based on a scale of 0 to 100 where 0 is no effect and 100 is complete control. A dash (-) response means no test result.
# [3] = test system: cocklebur; assay: Test E preemergence; format: in vivo, Xanthium strumarium; conditions: for Cocklebur plant response rating: scale 0 to 100 (0 no effect, 100 complete control)
# Text: as §3, §4
# [4] = test system: chickweed; assay: Test D postemergence; format: in vivo, Stellaria media; conditions: Stellaria media, post-emergence, scale 0 to 100 (0 no effect, 100 complete control), read-out: Plant response rating, Chickweed
# Text: as §1, §2
smiles,measurement,setting,value
"N#Cc1cccc(Oc2ncc(Cl)cn2)c1-n1cc(Br)cn1 [Compound 52, 2-(4-bromo-1H-pyrazol-1-yl)-3-[(5-chloro-2-pyrimidinyl)oxy]benzonitrile]",pest or weed control at 31 g/ha,[1]; 31 g ai/ha,65%
same,pest or weed control at 62 g/ha,[1]; 62 g ai/ha,70%
same,pest or weed control at 125 g/ha,[1]; 125 g ai/ha,70%
same,pest or weed control at 250 g/ha,[1]; 250 g ai/ha,100%
same,"Plant response rating, Kochia","[2]; Postemergence, 31 g ai/ha, scale 0 to 100",50
same,"Plant response rating, Kochia","[2]; Postemergence, 62 g ai/ha, scale 0 to 100",55
same,"Plant response rating, Kochia","[2]; Postemergence, 125 g ai/ha, scale 0 to 100",80
same,"Plant response rating, Kochia","[2]; postemergence, 16 g ai/ha, scale 0 to 100, 0 no effect, 100 complete control",40
same,Cocklebur plant response rating,[3]; 16 g ai/ha,0
same,Cocklebur plant response rating,[3]; 31 g ai/ha,0
same,Cocklebur plant response rating,[3]; 62 g ai/ha,0
same,"Plant response rating, Cocklebur","[3]; 250 g ai/ha, scale 0 to 100, 0 no effect, 100 complete control",25
same,pest or weed control at 31 g/ha,[4]; 31 g ai/ha,60%
same,pest or weed control at 62 g/ha,[4]; 62 g ai/ha,70%
same,pest or weed control at 125 g/ha,[4]; 125 g ai/ha,85%
same,pest or weed control at 250 g/ha,[4]; 250 g ai/ha,90%

# From patent US9695155B2, “Herbicidal substituted pyrimidinyloxy benzene compounds” (E. I. DU PONT DE NEMOURS AND COMPANY, priority 2013, dated 2017)
